Laboratory results published in paper PMC6198068, “Discovery of a Novel Nav1.7 Inhibitor From Cyriopagopus albostriatus Venom With Potent Analgesic Efficacy” (Frontiers in Pharmacology, 2018).
Where a SMILES comes first, the peptide text is derived from it. Bridges are numbered along the chain shown (N, C = ends).

Experiments:
Type in all cases: cell-based
Nav1.3 = target: T1, Nav1.3 (Homo sapiens, UniProt Q9NY46); experiment: Whole-cell patch-clamp, Nav1.3 in HEK293T cells; conditions: mean ± SEM
T1 construct: expressed in transfected cells; host or cells: HEK293T
Text: (§1) The cDNA genes encoding rat Nav1.4 and human Nav1.7 were subcloned into vectors pRGB4 and pcDNA3.1-mod, respectively. Mutations of rNav1.4 (N655D, Q657E, and N655D/Q657E) and hNav1.7 (D816N, E818Q, and D816N/E818Q) were constructed using the Gene Tailor Site-Directed Mutagenesis system (Invitrogen, Carlsbad, CA, United States), according to the manufacturer’s instructions. Nav1.2–Nav1.7 and mutant plasmids together with eGFP were transiently transfected into HEK293T cells while Nav1.8 together with eGFP was transiently transfected into ND7/23 cells by Lipofectamine 2000 (Invitrogen, Carlsbad, CA, United States). Additionally, plasmids β1- and β2-eGFP encoding the human β1 and β2 subunits, respectively, were co-transfected with those encoding WT Nav1.7 and Nav1.7 mutations in HEK293T cells. […] Cells with green fluorescent protein fluorescence were selected for whole-cell patch-clamp recordings 24 h after transfection.
(§2) Whole-cell patch-clamp recordings were performed at room temperature (20–25°C) using an EPC 10 USB Patch Clamp Amplifier (HEKA, Elektronik, Lambrecht, Germany). […] Data was analyzed by software Igo Pro 6.10A (WaveMetrics, Lake Oswego, OR, United States), SigmaPlot 10.0 (Sigma-Aldrich, St. Louis, MO, United States), OriginPro 8 (OriginLab Corp., Northampton, MA, United States), and GraphPad Prism 5 (GraphPad Software, San Diego, CA, United States). […]

Nav1.7 [1] = target: T2, Nav1.7 (Homo sapiens, UniProt Q15858); experiment: I–V relationships and voltage-dependent activation of Nav1.7; conditions: 0.2 μM, n = 10
T2 construct: expressed in transfected cells; host or cells: HEK293T
Text: as §1, §2

Nav1.7 [2] = target: T2, Nav1.7; experiment: Steady-state fast inactivation and fast inactivation time constants of Nav1.7; conditions: 0.2 μM
Text: as §1, with “States).” for “States). Additionally, plasmids β1- and β2-eGFP encoding the human β1 and β2 subunits, respectively, were co-transfected with those encoding WT Nav1.7 and Nav1.7 mutations in HEK293T cells.”
as §2
Fast inactivation time constants were calculated by fitting current decay traces with a single exponential function using the I–V protocol described above. […]

Nav1.7/D816N [3] = target: T3, Nav1.7/D816N (Homo sapiens, UniProt Q15858, D827N); experiment: Whole-cell patch-clamp, Nav1.7/D816N in HEK293T cells
T3 construct: expressed in transfected cells; host or cells: HEK293T
Text: as §1, §2

Nav1.7/D816N [4] = target: T3, Nav1.7/D816N; experiment: Time course of Nav1.7/D816N inhibition and recovery upon washing; conditions: 1 μM, n = 4
Text: as §1, §2

T3 sequence (O60939 30-215): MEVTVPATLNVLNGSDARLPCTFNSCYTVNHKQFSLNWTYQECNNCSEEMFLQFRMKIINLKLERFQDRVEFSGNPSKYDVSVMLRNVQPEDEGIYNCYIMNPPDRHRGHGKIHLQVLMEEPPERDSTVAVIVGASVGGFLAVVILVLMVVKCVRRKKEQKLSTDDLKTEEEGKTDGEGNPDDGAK
T3 sequence (Q07699 19-218, further chain): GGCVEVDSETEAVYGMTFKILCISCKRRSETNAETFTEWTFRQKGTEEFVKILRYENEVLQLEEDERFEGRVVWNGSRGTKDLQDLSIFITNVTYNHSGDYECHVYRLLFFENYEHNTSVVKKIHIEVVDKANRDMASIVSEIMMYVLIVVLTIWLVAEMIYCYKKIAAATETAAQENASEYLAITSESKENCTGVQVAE
T3 sequence (Q15858 other isoform, or with tags, fused parts or gaps D816N): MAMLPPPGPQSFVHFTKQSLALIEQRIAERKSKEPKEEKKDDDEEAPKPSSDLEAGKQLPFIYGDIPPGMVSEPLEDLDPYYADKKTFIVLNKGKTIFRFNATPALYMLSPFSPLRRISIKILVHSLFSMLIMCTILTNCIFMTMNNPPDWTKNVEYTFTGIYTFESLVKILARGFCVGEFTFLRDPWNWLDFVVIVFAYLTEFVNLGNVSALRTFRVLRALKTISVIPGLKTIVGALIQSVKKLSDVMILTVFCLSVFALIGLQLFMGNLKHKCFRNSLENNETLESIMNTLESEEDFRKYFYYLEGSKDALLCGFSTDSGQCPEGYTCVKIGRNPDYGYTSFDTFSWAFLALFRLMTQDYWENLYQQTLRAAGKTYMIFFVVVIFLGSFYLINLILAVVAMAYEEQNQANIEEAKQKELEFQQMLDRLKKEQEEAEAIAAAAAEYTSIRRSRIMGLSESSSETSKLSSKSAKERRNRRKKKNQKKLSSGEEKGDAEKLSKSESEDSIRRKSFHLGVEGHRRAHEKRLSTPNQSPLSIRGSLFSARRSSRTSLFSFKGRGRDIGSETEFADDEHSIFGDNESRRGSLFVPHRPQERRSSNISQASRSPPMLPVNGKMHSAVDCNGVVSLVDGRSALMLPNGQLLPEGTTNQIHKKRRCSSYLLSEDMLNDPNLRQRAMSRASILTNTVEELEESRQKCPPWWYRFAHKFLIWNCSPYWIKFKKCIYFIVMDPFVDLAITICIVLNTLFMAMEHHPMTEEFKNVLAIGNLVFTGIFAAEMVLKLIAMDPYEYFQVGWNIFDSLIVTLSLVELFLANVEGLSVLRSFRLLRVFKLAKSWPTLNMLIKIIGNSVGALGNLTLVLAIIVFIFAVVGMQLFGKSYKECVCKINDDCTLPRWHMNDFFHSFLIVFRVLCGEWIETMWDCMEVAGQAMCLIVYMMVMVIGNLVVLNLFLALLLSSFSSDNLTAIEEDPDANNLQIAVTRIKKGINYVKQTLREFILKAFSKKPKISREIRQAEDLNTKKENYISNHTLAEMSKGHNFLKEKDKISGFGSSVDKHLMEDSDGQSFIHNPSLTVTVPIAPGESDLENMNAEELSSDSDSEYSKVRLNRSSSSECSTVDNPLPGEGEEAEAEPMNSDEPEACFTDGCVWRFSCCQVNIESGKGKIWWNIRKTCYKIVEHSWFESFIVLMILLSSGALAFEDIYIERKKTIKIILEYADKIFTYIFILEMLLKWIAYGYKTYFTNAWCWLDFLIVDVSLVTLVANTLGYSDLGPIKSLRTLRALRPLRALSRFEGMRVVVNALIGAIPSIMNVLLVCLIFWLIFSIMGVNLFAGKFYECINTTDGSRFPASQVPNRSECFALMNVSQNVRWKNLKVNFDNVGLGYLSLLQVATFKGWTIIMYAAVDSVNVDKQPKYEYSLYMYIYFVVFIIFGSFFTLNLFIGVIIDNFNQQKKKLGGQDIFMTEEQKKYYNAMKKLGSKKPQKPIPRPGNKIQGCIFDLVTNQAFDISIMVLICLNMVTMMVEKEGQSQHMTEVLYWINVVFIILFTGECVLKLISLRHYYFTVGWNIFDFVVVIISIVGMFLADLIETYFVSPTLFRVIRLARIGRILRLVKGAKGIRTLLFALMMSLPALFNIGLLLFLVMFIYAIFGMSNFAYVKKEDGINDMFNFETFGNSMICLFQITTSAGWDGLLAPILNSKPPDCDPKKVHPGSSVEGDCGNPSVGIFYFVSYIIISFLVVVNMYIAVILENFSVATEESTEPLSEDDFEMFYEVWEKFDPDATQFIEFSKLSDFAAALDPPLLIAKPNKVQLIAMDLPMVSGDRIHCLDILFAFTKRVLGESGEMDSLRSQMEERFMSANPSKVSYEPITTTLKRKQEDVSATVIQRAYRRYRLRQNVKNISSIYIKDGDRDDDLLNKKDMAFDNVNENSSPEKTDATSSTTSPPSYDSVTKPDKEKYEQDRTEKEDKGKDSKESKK
T2 sequence (O60939 30-215): as the sequence (O60939 30-215) above
T2 sequence (Q15858 other isoform, or with tags, fused parts or gaps): as the sequence (Q15858 other isoform, or with tags, fused parts or gaps D816N) above, with N816D counted along it
T2 sequence (Q07699 19-218, further chain): as the sequence (Q07699 19-218, further chain) above
T1 sequence (Q9NY46 whole entry): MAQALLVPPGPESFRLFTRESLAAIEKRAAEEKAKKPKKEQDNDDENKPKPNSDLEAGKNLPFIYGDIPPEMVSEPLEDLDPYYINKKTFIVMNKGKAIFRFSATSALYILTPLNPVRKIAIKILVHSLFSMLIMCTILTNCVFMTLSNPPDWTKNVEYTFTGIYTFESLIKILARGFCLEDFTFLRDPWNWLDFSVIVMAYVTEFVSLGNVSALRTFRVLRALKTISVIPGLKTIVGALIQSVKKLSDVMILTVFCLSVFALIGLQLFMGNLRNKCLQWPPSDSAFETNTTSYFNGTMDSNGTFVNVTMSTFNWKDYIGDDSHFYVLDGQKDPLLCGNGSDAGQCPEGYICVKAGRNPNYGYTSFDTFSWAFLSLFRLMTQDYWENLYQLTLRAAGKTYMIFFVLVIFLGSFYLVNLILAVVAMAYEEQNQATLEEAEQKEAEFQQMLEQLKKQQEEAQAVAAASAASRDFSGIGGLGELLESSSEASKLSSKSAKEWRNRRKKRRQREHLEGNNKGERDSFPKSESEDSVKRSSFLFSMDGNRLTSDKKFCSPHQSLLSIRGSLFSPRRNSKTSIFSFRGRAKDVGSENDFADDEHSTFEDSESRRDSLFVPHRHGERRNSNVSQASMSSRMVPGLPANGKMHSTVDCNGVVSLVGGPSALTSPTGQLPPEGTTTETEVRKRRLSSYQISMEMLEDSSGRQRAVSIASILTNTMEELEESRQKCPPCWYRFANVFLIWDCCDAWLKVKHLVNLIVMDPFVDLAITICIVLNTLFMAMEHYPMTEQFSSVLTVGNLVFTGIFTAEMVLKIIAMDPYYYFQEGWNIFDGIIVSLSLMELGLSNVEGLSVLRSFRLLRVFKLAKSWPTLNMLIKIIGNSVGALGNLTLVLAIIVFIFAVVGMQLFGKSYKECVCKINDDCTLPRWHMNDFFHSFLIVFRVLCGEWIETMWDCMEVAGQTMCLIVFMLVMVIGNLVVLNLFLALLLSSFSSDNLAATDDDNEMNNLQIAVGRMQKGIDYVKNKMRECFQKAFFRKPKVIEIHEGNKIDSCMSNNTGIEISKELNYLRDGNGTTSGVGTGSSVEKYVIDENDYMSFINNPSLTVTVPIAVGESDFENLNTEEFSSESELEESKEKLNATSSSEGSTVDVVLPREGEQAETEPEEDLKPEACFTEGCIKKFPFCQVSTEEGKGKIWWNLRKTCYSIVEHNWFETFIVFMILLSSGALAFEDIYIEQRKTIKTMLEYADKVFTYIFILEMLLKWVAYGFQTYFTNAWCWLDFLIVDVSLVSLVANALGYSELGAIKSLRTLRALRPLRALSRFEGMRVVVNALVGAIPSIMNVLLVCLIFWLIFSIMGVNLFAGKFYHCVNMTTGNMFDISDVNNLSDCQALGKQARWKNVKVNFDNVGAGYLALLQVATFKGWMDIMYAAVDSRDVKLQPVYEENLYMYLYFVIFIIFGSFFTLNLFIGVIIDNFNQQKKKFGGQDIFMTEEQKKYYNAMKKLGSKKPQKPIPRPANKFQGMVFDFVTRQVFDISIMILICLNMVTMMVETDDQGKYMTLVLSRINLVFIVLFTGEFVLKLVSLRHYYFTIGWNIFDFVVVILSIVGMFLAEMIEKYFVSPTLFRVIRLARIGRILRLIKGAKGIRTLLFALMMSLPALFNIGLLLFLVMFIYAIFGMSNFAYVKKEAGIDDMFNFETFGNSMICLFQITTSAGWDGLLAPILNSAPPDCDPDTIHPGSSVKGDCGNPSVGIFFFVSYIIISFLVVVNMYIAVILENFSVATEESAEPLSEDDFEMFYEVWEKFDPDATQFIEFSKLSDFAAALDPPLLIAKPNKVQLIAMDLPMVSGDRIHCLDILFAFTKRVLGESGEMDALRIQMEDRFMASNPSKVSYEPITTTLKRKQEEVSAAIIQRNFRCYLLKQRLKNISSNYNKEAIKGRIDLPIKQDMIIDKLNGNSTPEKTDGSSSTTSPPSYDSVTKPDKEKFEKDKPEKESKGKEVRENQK

SMILES: CC(C)C[C@H](NC(=O)[C@H](CC(=O)O)NC(=O)[C@H](Cc1ccc(O)cc1)NC(=O)[C@H](CCCCN)NC(=O)[C@@H]1CSSC[C@@H]2NC(=O)[C@H](CCCCN)NC(=O)[C@H](CC(=O)O)NC(=O)[C@H](CC(N)=O)NC(=O)[C@H](CO)NC(=O)[C@@H]3CCCN3C(=O)[C@H](CC(N)=O)NC(=O)[C@@H]3CSSC[C@H](NC(=O)[C@H](C(C)C)NC(=O)[C@H](CC(C)C)NC(=O)[C@H](CO)NC(=O)[C@H](CO)NC(=O)[C@H](CO)NC(=O)[C@H](CCCCN)NC(=O)[C@H](CSSC[C@H](NC(=O)[C@H](C)N)C(=O)N[C@@H](CC(C)C)C(=O)NCC(=O)N[C@@H](Cc4ccccc4)C(=O)NCC(=O)N[C@@H](CCC(=O)O)C(=O)N[C@@H](CCCCN)C(=O)N3)NC2=O)C(=O)N[C@@H](CO)C(=O)N[C@@H](CCC(N)=O)C(=O)N[C@@H](CCCCN)C(=O)N[C@@H](Cc2c[nH]cn2)C(=O)N[C@@H](CCCCN)C(=O)N[C@@H](Cc2c[nH]c3ccccc23)C(=O)N1)C(=O)O [Ca2a] (H-ACLGFGEKCNPSNDKCCKSSSLVCSQKHKWCKYDL-OH; disulfide 2-17, 9-24, 16-31 (inferred); N-terminus and C-terminus assumed)
- decrease of Nav1.3 current amplitude (Nav1.3; 1 μM, 50 ms to −10 mV from −100 mV): 67.7 ± 3.8%
- IC50 (Nav1.3; whole-cell patch-clamp, n = 4–7 cells per data point): 491.3 ± 3.9 nM
- half-activation voltage of Nav1.7 (Nav1.7 [1]; control −20.1 ± 1.1 mV, mean ± SEM): −18.9 ± 1.3 mV
- threshold of initial activation voltage, active voltage of peak current, reversal potential of Nav1.7 (I–V) (Nav1.7 [1]): did not change
- fast inactivation time constants of Nav1.7 (Nav1.7 [2]; between −15 and 10 mV, P > 0.05, two-way ANOVA, n = 6–11 cells): did not alter the inactivation time constants
- half-inactivation voltage of Nav1.7 (steady-state fast inactivation) (Nav1.7 [2]; control −70.2 ± 0.8 mV, 500-ms prepulse, mean ± SEM, n = 10): −70.7 ± 1.1 mV
- inhibition of Nav1.7/D816N current amplitude (Nav1.7/D816N [3]; 1 μM): significantly inhibited
- IC50 (Nav1.7/D816N [3]; mean ± SEM, n = 5 cells per data point): 172 ± 11.4 nM
- recovery of Nav1.7/D816N current on washout (Nav1.7/D816N [4]; extended washout): did not recover
- τon, Nav1.7/D816N (Nav1.7/D816N [4]): 18.4 ± 1.3 s
